The source of these data is US20080194616A1, “PYRIDOPYRIMIDINONE COMPOUNDS USEFUL IN TREATING SODIUM CHANNEL-MEDIATED DISEASES OR CONDITIONS” (Xenon Pharmaceuticals Inc., priority 2007, published 2008).

Counter-ions that a name gives are not always drawn.

In general, melting point refers to the temperature of the solid-liquid transition. Compound `O=c1c(-c2ccc(N[C@@H]3CCNC3)cc2)c(N2CCCC2)nc2ccccn12` (as salt: chloride) [Example 7.11, (R)-2-pyrrolidin-1-yl-3-{4-[pyrrolidin-3-ylamino]phenyl}-4H-pyrido[1,2-a]pyrimidin-4-one hydrogen chloride] returned a melting point of 177 to 183 °C. Under `CCCCc1nc2ccccn2c(=O)c1-c1ccc2c(c1)CCN2` (as salt: hydrochloride) [Example 2, 2-butyl-3-(indolin-5-yl)-4H-pyrido[1,2-a]pyrimidin-4-one hydrochloride] stands 157 to 162 °C.

Consider `CCCCc1nc2ccccn2c(=O)c1-c1ccc(NC[C@H]2CCCO2)cc1` (as salt: hydrochloride) [Example 3.27, (R)-2-butyl-3-(4-{[tetrahydrofuran-2-ylmethyl]amino}phenyl)-4H-pyrido[1,2-a]pyrimidin-4-one hydrochloride], for which the melting point was in the range of 155 to 170 °C. Under `CCCCc1nc2ccccn2c(=O)c1-c1ccc(NC[C@@H]2CCCO2)cc1` (as salt: hydrochloride) [Example 3.28, (S)-2-butyl-3-(4-{[tetrahydrofuran-2-ylmethyl]amino}phenyl)-4H-pyrido[1,2-a]pyrimidin-4-one hydrochloride] stands 155 to 170 °C; under `CCCCc1nc2ccccn2c(=O)c1-c1ccc(N[C@@H]2CCOC2)cc1` (as salt: hydrochloride) [Example 3.29, (R)-2-butyl-3-{4-[tetrahydrofuran-3-ylamino]phenyl}-4H-pyrido[1,2-a]pyrimidin-4-one hydrochloride], 135 to 145 °C. For `CCCCc1nc2ccccn2c(=O)c1-c1ccc(NC2CCCNC2)cc1` (stereo not drawn) (as salt: hydrochloride) [Example 6, 2-butyl-3-[4-(piperidin-3-ylamino)phenyl]-4H-pyrido[1,2-a]pyrimidin-4-one hydrochloride], the melting point was in the range of 178 to 185 °C. As for `CCCCc1nc2ccccn2c(=O)c1-c1ccc(NC2CCNCC2)cc1` (as salt: hydrochloride) [Example 6.1, 2-butyl-3-[4-(piperidin-4-ylamino)phenyl]-4H-pyrido[1,2-a]pyrimidin-4-one hydrochloride], the melting point is over 220 °C.

`CCCCc1nc2ccccn2c(=O)c1-c1ccc(N[C@@H]2CCCNC2)cc1` (as salt: hydrochloride) [Example 6.2, (R)-2-butyl-3-{4-[piperidin-3-ylamino]phenyl}-4H-pyrido[1,2-a]pyrimidin-4-one hydrochloride]: the melting point lay within 190 to 210 °C. Under `Cc1nc2ccccn2c(=O)c1-c1ccc(N[C@@H]2CCNC2)cc1` (as salt: hydrochloride) [Example 6.3, (R)-2-methyl-3-(4-(pyrrolidin-3-ylamino)phenyl)-4H-pyrido[1,2-a]pyrimidin-4-one hydrochloride] stands 149 to 158 °C; under `CCc1nc2ccccn2c(=O)c1-c1ccc(N[C@@H]2CCNC2)cc1` (as salt: hydrochloride) [Example 6.4, (R)-2-ethyl-3-(4-(pyrrolidin-3-ylamino)phenyl)-4H-pyrido[1,2-a]pyrimidin-4-one hydrochloride], 175 to 182 °C. `CCCCc1nc2ccccn2c(=O)c1-c1ccc(NC2CCNC2)cc1` (stereo not drawn) (as salt: hydrochloride) [Example 7, 2-butyl-3-(4-(pyrrolidin-3-ylamino)phenyl)-4H-pyrido[1,2-a]pyrimidin-4-one hydrochloride] showed a melting point of 136 to 139 °C. Under `CCCCc1nc2ccccn2c(=O)c1-c1ccc(N[C@H]2CCNC2)cc1` (as salt: hydrochloride) [Example 7.1, (S)-2-butyl-3-{4-[pyrrolidin-3-ylamino]phenyl}-4H-pyrido[1,2-a]pyrimidin-4-one hydrochloride] stands 164 to 171 °C; under `CCCCc1nc2ccccn2c(=O)c1-c1ccc(N[C@@H]2CCNC2)c(F)c1` (as salt: hydrochloride) [Example 7.2, (R)-2-butyl-3-{3-fluoro-4-[(pyrrolidin-3-ylamino]phenyl}-4H-pyrido[1,2-a]pyrimidin-4-one hydrochloride], 143 to 155 °C; under `CCCCc1nc2ccccn2c(=O)c1-c1ccc(N[C@@H]2CCNC2)cc1C` (as salt: hydrochloride) [Example 7.3, (R)-2-butyl-3-{2-methyl-4-[pyrrolidin-3-ylamino]phenyl}-4H-pyrido[1,2-a]pyrimidin-4-one hydrochloride], 179 to 187 °C.

For `CCCCc1nc2ccccn2c(=O)c1-c1cccc(NC2CCNC2)c1` (stereo not drawn) (as salt: hydrochloride) [Example 7.4, 2-butyl-3-[3-(pyrrolidin-3-ylamino)phenyl]-4H-pyrido[1,2-a]pyrimidin-4-one hydrochloride], the melting point is over 170 °C. With `CC(C)c1nc2ccccn2c(=O)c1-c1ccc(NC2CCNC2)cc1` (stereo not drawn) (as salt: hydrochloride) [Example 7.5, 2-(1-methylethyl)-3-[4-(pyrrolidin-3-ylamino)phenyl]-4H-pyrido[1,2-a]pyrimidin-4-one hydrochloride] the figure was 180 to 184 °C; with `CC(C)CCc1nc2ccccn2c(=O)c1-c1ccc(N[C@@H]2CCNC2)cc1` (as salt: hydrochloride) [Example 7.6, (R)-2-isopentyl-3-(4-(pyrrolidin-3-ylamino)phenyl)-4H-pyrido[1,2-a]pyrimidin-4-one hydrochloride], 171 to 187 °C; with `O=c1c(-c2ccc(N[C@@H]3CCNC3)cc2)c(CCC2CC2)nc2ccccn12` (as salt: hydrochloride) [Example 7.7, (R)-2-(2-cyclopropylethyl)-3-(4-(pyrrolidin-3-ylamino)phenyl)-4H-pyrido[1,2-a]pyrimidin-4-one hydrochloride], 182 to 185 °C. Under `CCCNc1nc2ccccn2c(=O)c1-c1ccc(NC2CCNC2)cc1` (stereo not drawn) (as salt: hydrochloride) [Example 7.8, 2-(propylamino)-3-[4-(pyrrolidin-3-ylamino)phenyl]-4H-pyrido[1,2-a]pyrimidin-4-one hydrochloride] stands 156 to 161 °C. Under `CC(C)Nc1nc2ccccn2c(=O)c1-c1ccc(NC2CCNC2)cc1` (stereo not drawn) (as salt: hydrochloride) [Example 7.9, 2-[(1-methylethyl)amino]-3-[4-(pyrrolidin-3-ylamino)phenyl]-4H-pyrido[1,2-a]pyrimidin-4-one hydrochloride] stands 232 to 236 °C.

`CC(C)Nc1nc2ccccn2c(=O)c1-c1ccc(N[C@@H]2CCNC2)cc1` (as salt: hydrochloride) [Example 7.10, (R)-2-[(1-methylethyl)amino]-3-{4-[pyrrolidin-3-ylamino]phenyl}-4H-pyrido[1,2-a]pyrimidin-4-one hydrochloride] showed a melting point of 229 to 234 °C. Take `CCCCc1nc2ccccn2c(=O)c1-c1ccc2c(c1)CCN2C1CCNC1` (stereo not drawn) (as salt: hydrochloride) [Example 7.12, 2-butyl-3-(1-(pyrrolidin-3-yl)indolin-5-yl)-4H-pyrido[1,2-a]pyrimidin-4-one hydrochloride]: the melting point was 159 to 163 °C.

`CCCCc1nc2ccccn2c(=O)c1-c1ccc(N2CCNCC2)nc1` (as salt: hydrochloride) [Example 7.13, 2-butyl-3-(6-piperazin-1-ylpyridin-3-yl)-4H-pyrido[1,2-a]pyrimidin-4-one hydrochloride] registered a melting point of over 245 °C. With `CCCCc1nc2ccccn2c(=O)c1-c1ccc(O[C@@H]2CCNC2)cc1` (as salt: hydrochloride) [Example 15, (R)-2-butyl-3-{4-[pyrrolidin-3-yloxy]phenyl}-4H-pyrido[1,2-a]pyrimidin-4-one hydrochloride] the figure was 132 to 140 °C. As for `CCCCc1nc2ccccn2c(=O)c1-c1ccc(N(C)C2CCCNC2)cc1` (stereo not drawn) (as salt: hydrochloride) [Example 17, 2-butyl-3-{4-[methyl(piperidin-3-yl)amino]phenyl}-4H-pyrido[1,2-a]pyrimidin-4-one hydrochloride], the melting point lay in the range of 170 to 185 °C. In the case of `CCCCc1nc2ccccn2c(=O)c1-c1ccc(OS(=O)(=O)C(F)(F)F)cc1` (as salt: methanesulfonate) [Example 12, 4-(2-butyl-4-oxo-4H-pyrido[1,2-a]pyrimidin-3-yl)phenyl trifluoromethanesulfonate], the melting point was in the range of 106 to 108 °C.

On to `COc1nc2ccccn2c(=O)c1-c1ccc(NC2CCNC2)cc1` (stereo not drawn) (as salt: trifluoroacetate) [Example 9, 2-methoxy-3-[4-(pyrrolidin-3-ylamino)phenyl]-4H-pyrido[1,2-a]pyrimidin-4-one trifluoroacetate], for which the melting point is 56 to 58 °C. Under `CCCOc1nc2ccccn2c(=O)c1-c1ccc(N[C@@H]2CCNC2)cc1` (as salt: trifluoroacetate) [Example 9.1, (R)-2-propoxy-3-(4-(pyrrolidin-3-ylamino)phenyl)-4H-pyrido[1,2-a]pyrimidin-4-one trifluoroacetate] stands > 100 °C (dec.). Under `CCCc1nc2ccccn2c(=O)c1-c1ccc(Cl)cc1` [Example 1.4, 3-(4-chlorophenyl)-2-propyl-4H-pyrido[1,2-a]pyrimidin-4-one] stands 109 to 110 °C. Under `CCCCc1nc2ccccn2c(=O)c1-c1ccccc1Cl` [Example 1.6, 2-butyl-3-(2-chlorophenyl)-4H-pyrido[1,2-a]pyrimidin-4-one] stands 118 to 120 °C; under `CCCCc1nc2ccccn2c(=O)c1-c1ccc(Cl)cc1C` [Example 1.9, 2-butyl-3-(4-chloro-2-methylphenyl)-4H-pyrido[1,2-a]pyrimidin-4-one], 105 to 107 °C; under `CCCCc1nc2ccccn2c(=O)c1-c1ccc(Cl)c(C)c1` [Example 1.10, 2-butyl-3-(4-chloro-3-methylphenyl)-4H-pyrido[1,2-a]pyrimidin-4-one], 122 to 124 °C. The compound `CCCCc1nc2ccccn2c(=O)c1-c1ccc(OC)c(Cl)c1` [Example 1.13, 2-butyl-3-(3-chloro-4-methoxyphenyl)-4H-pyrido[1,2-a]pyrimidin-4-one] displayed a melting point of 113 to 115 °C.
